Measured values from paper PMC6934184, “Selective DNA-PKcs inhibition extends the therapeutic index of localized radiotherapy and chemotherapy” (The Journal of Clinical Investigation, 2019).

Molecular target: T1, BMPR2 (Homo sapiens, UniProt Q13873)
T1 construct: purchased Thermo Fisher Scientific (Life Technologies) SelectScreen
Experiment: SelectScreen LanthaScreen
Format: binding
Conditions: 1 µM
Summary of the method: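 NU5455 was profiled across the SelectScreen Broad panel of kinase activity and binding assays. Z'LYTE reactions such as CSF1R ran at apparent Km ATP, while the Adapta CAMK1 assay used ATP listed as 10. Values are given as percent.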

T1 sequence (Q13873 27-1038): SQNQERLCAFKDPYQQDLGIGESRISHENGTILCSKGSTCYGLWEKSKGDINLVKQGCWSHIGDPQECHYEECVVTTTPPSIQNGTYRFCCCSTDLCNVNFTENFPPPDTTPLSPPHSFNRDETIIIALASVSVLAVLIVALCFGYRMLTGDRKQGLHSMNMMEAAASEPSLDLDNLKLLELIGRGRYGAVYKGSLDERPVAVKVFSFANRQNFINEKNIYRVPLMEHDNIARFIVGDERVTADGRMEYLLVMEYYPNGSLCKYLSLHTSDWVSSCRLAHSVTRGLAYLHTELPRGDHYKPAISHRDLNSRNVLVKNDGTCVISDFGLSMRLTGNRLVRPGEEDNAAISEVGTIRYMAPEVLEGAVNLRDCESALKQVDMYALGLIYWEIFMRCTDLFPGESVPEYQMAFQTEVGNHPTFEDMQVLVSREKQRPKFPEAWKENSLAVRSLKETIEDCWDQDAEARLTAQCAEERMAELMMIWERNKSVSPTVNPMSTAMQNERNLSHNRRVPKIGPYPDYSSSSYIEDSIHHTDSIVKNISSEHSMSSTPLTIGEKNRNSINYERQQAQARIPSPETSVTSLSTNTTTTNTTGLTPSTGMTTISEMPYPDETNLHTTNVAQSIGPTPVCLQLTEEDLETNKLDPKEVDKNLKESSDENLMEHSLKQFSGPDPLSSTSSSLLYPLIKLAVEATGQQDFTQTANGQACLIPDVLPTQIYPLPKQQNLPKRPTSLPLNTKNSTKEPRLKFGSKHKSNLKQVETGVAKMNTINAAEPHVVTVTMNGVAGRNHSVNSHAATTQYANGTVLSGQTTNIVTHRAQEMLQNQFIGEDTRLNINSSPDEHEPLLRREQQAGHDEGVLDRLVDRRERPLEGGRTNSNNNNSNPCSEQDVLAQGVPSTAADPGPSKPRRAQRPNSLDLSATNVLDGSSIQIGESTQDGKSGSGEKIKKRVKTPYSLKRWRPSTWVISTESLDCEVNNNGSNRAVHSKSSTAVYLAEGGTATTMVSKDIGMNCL

CN(C(=O)CN1CCOCC1)c1ccc2sc3c(-c4cccc5c(=O)cc(N6CC7CCC(C6)O7)oc45)cccc3c2c1 [NU5455]
% displacement: -2.5%
